Reference: patent publication US12617864B2, “Methods of activating and proliferating exhausted CD8 T cells, CD8 T cells with enhanced activity prepared by the same, and uses thereof” (Medgene Therapeutics, Inc., priority 2021, dated 2026)

Experiments:
[1] = test system: Klf4 gene; assay: Klf4 gene expression in CD8 T cells treated with APTO-253; type: cell-based, mice; details: 3 μM APTO-253 for 3 days (72 hours) during activation; compared to PBS-treated CD8 T cells
Procedure: (§1) Accordingly, in the same manner as above, after separating naïve CD8 T cells, naïve CD8 T cells were seeded on a plate coated with anti-CD3 antibody and in the process of activation, anti-CD28 antibody (2 μg/ml) and mIL-2 (100 U/ml) was treated with 3 μM of APTO-253 (MedChemExpress, LLC). Then, it was cultured for 72 hours in a 37° C. 5% CO2 cell incubator. After completion of the culture, the cells were transferred to a 15 ml centrifuge tube, and the volume was adjusted to 3 ml by adding RPMI medium. After that, 3 ml of Histopaque (Sigma) was carefully placed in the lower layer. Then, centrifugation was carried out for 30 minutes at 25° C. at 2,000 rpm, and at this time, acceleration and deceleration were set to a minimum. After centrifugation, the culture solution of the upper layer was removed, and the cells present at the interface were recovered, transferred to a 15 ml centrifuge tube, resuspended in 10 ml of PBS, and centrifuged for 5 minutes at 4° C. and 1,500 rpm. After centrifugation, the supernatant was removed, the cell pellet was washed once more with 10 mL of PBS and centrifuged for 5 minutes at 4° C. and 1,500 rpm. After centrifugation, the supernatant was removed, the cell pellet was resuspended in an appropriate amount of PBS, and the cells were counted. […]

[2] = test system: MC38 cancer cells; assay: Mouse tumor model: MC38 in Rag2 KO mice given CD8 T cells treated with APTO-253; details: 5×10^5 CD8 T cells treated ex vivo with APTO-253 for 3 days, i.v. the day after 3×10^5 MC38; until day 15; vs PBS-treated CD8 T cells
Procedure: as §1

[3] = test system: CD8 T cells from OT-I transgenic mice; assay: In vitro exhaustion experiment: repeated OVA peptide stimulation of CD8 T cells, gene expression by qRT-PCR; type: cell-based; details: repeated stimulation+IL-21 treatment group, OVA peptide 10 ng/ml for 5 days
Procedure: To this end, the present inventors specifically isolated CD8 T cells from OT-I transgenic mice having OVA (ovalbumin)-peptide-specific T cell receptor (TCR) and repeatedly treated the OVA peptide for 5 days. All experimental sets were treated with IL-15 (5 ng/ml) and IL-7 (5 ng/ml) to increase the viability of CD8 T cells. After treatment with OVA peptide (10 ng/ml) and washing the next day, stimulation was repeatedly applied for 5 days in such a way that cytokines and OVA peptide were treated with the same composition again (repeated stimulation treatment group). At this time, as a control group, only a cytokine-treated group without OVA peptide treatment and a single stimulation treatment group in which OVA peptide (10 ng/ml) was treated for 2 days and washed, and then only cytokine was treated for 3 days were added. In addition, a set treated with IL-21, which is known to help activate CD8 T cells, was also added (repetitive stimulation+IL-21 treated group) (FIG. 1A). After 5 days, live CD8 T cells were isolated using a cell sorter, RNA was extracted, reverse transcribed into cDNA, and the expression levels of various genes were confirmed by qRT-PCR. […]

Compound	Klf4 gene expression level in CD8 T cells [1]	tumor growth (tumor volume) [2]	expression of the Klf4 gene [3]	expression of the Tox gene ([3]; compared with repeated stimulation group)
Cc1[nH]c2ccc(F)cc2c1-c1nc2c3cccnc3c3ncccc3c2[nH]1 [APTO-253, 2-(5-fluoro-2-methyl-1H-indol-3-yl)-1H-imidazo[4,5-f][1,10]phenanthroline]	increased Klf4 gene expression level	decreased tumor growth		
IL-21: cytokine known to help activate CD8 T cells			significantly increased	decreased
